From ChEMBL document CHEMBL5329150, “STING antagonists, synthesized via Povarov-Doebner type multicomponent reaction” (RSC Med Chem, 2023)
pIC50: −log10 of the molar value.

Target: Cyclic GMP-AMP synthase (Mus musculus, UniProt Q8C6L5)
Assay: Inhibition of mouse cGAS by ATP consumption assay

Cyclic GMP-AMP synthase, sequence (Q8C6L5 whole entry): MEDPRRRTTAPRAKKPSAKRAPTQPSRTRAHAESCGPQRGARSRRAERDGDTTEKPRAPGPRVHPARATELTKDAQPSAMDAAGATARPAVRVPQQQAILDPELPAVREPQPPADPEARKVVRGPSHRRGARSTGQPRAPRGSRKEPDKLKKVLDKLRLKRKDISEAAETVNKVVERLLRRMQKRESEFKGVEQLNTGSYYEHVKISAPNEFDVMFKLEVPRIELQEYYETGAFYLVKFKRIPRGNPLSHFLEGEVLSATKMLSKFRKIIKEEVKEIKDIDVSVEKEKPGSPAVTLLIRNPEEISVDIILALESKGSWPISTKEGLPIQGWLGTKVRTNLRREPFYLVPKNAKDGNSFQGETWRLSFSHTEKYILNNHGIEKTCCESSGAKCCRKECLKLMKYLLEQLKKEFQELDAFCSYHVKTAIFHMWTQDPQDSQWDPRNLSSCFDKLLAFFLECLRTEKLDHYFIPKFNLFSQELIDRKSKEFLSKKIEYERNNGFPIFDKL

CCn1nc(C)cc1C(=O)Nc1nc2cc(C(N)=O)cc(OC)c2n1C/C=C/Cn1c(NC(=O)c2cc(C)nn2CC)nc2cc(C(N)=O)cc(OCCCN3CCOCC3)c21
pIC50: 6.57
